# Experimental data as given in patent US10597388B2, “Pyridazinone herbicides” (FMC CORPORATION, priority 2014, dated 2020).
# Key:
# Test in all cases: Test C greenhouse herbicide test, pre- and postemergence
# Format in all cases: in vivo
# [1] = test system: barnyardgrass (Echinochloa crus-galli)
# How it was run: (§1)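 Visual ratings on a 0 to 100 scale (0 = no effect, 100 = complete control) versus untreated controls, scored 13–15 d after treatment. Soil-applied preemergence to seeded loam/sand; foliar postemergence to 1- to 4-leaf plants (2–18 cm) in peat-vermiculite mix; compounds formulated in solvent plus surfactant.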
# [2] = test system: blackgrass (Alopecurus myosuroides)
# How it was run: as §1
# corn (Zea mays) = test system: corn (Zea mays)
# How it was run: as §1
# [3] = test system: foxtail, giant (giant foxtail, Setaria faberii); details: Postemergence
# How it was run: as §1
# [4] = test system: galium (catchweed bedstraw, Galium aparine)
# How it was run: as §1
# [5] = test system: johnsongrass (Sorghum halepense)
# How it was run: as §1
# [6] = test system: lambsquarters (Chenopodium album)
# How it was run: as §1
# [7] = test system: morningglory (Ipomoea coccinea)
# How it was run: as §1
# [8] = test system: nutsedge, yellow (yellow nutsedge, Cyperus esculentus)
# How it was run: as §1
# [9] = test system: pigweed (Amaranthus retroflexus)
# How it was run: as §1
# [10] = test system: ragweed (common ragweed, Ambrosia elatior)
# How it was run: as §1
# [11] = test system: ryegrass, Italian (Italian ryegrass, Lolium multiflorum)
# How it was run: as §1
# soybean (Glycine max) = test system: soybean (Glycine max)
# How it was run: as §1
# [12] = test system: velvetleaf (Abutilon theophrasti)
# How it was run: as §1
# [13] = test system: waterhemp (common waterhemp, Amaranthus rudis)
# How it was run: as §1
# [14] = test system: wheat (winter wheat, Triticum aestivum)
# How it was run: as §1
# [15] = Postemergence, 31 g ai/ha, scale 0 to 100 (0 no effect, 100 complete control)
# [16] = Postemergence, 125 g ai/ha, scale 0 to 100, 0 is no effect, 100 is complete control
# [17] = Postemergence, 250 g ai/ha, scale 0 to 100, 0 no effect, 100 complete control, 13 to 15 d
# [18] = Preemergence, 31 g ai/ha, scale 0 to 100, 0 is no effect, 100 is complete control
# [19] = Preemergence, 62 g ai/ha, scale 0 to 100, 0 is no effect, 100 is complete control
# [20] = Preemergence, 125 g ai/ha, scale 0 to 100, 0 is no effect, 100 is complete control
# [21] = Preemergence, 250 g ai/ha, scale 0 to 100 (0 no effect, 100 complete control)
# [22] = postemergence, 62 g ai/ha, scale 0 to 100, 0 no effect, 100 complete control
compound,measurement,setting,value
CCC(=O)Oc1c(Cl)nn(C)c(=O)c1-c1c(C)sc2ccc(Cl)cc12 [Compound 111],"Plant response rating, Barnyardgrass",[1]; [15],10
same,"Plant response rating, Barnyardgrass",[1]; [16],45
same,"Plant response rating, Barnyardgrass",[1]; [17],40
same,"Plant response rating, Barnyardgrass",[1]; [18],10
same,"Plant response rating, Barnyardgrass",[1]; [19],20
same,"Plant response rating, Barnyardgrass",[1]; [20],55
same,Barnyardgrass plant response rating,[1]; [21],85
same,Barnyardgrass plant response rating,[1]; [22],30
same,"Plant response rating, Blackgrass",[2]; [15],0
same,"Plant response rating, Blackgrass",[2]; [16],20
same,"Plant response rating, Blackgrass",[2]; [17],35
same,"Plant response rating, Blackgrass",[2]; [18],0
same,"Plant response rating, Blackgrass",[2]; [19],5
same,"Plant response rating, Blackgrass",[2]; [20],5
same,Blackgrass plant response rating,[2]; [21],20
same,Blackgrass plant response rating,[2]; [22],5
same,"Plant response rating, Corn",corn (Zea mays); [15],5
same,"Plant response rating, Corn",corn (Zea mays); [16],15
same,"Plant response rating, Corn",corn (Zea mays); [17],10
same,"Plant response rating, Corn",corn (Zea mays); [18],0
same,"Plant response rating, Corn",corn (Zea mays); [19],0
same,"Plant response rating, Corn",corn (Zea mays); [20],0
same,Corn plant response rating,corn (Zea mays); [21],15
same,Corn plant response rating,corn (Zea mays); [22],10
same,"Plant response rating, Foxtail, Giant","[3]; 31 g ai/ha, scale 0 to 100 (0 no effect, 100 complete control)",15
same,"Plant response rating, Foxtail, Giant","[3]; 125 g ai/ha, scale 0 to 100, 0 is no effect, 100 is complete control",70
same,"Plant response rating, Foxtail, Giant","[3]; 250 g ai/ha, scale 0 to 100, 0 no effect, 100 complete control, 13 to 15 d",85
same,"Plant response rating, Galium",[4]; [15],95
same,"Plant response rating, Galium",[4]; [16],95
same,"Plant response rating, Galium",[4]; [17],95
same,"Plant response rating, Galium",[4]; [18],80
same,"Plant response rating, Galium",[4]; [19],80
same,"Plant response rating, Galium",[4]; [20],100
same,Galium plant response rating,[4]; [21],100
same,"Plant response rating, Johnsongrass",[5]; [15],10
same,"Plant response rating, Johnsongrass",[5]; [16],15
same,"Plant response rating, Johnsongrass",[5]; [17],10
same,"Plant response rating, Johnsongrass",[5]; [18],0
same,"Plant response rating, Johnsongrass",[5]; [19],0
same,"Plant response rating, Johnsongrass",[5]; [20],0
same,Johnsongrass plant response rating,[5]; [21],20
same,"Plant response rating, Lambsquarters",[6]; [15],90
same,"Plant response rating, Lambsquarters",[6]; [16],100
same,"Plant response rating, Lambsquarters",[6]; [17],100
same,"Plant response rating, Lambsquarters",[6]; [18],90
same,"Plant response rating, Lambsquarters",[6]; [19],95
same,"Plant response rating, Lambsquarters",[6]; [20],90
same,Lambsquarters plant response rating,[6]; [21],95
same,"Plant response rating, Morningglory",[7]; [15],100
same,"Plant response rating, Morningglory",[7]; [16],100
same,"Plant response rating, Morningglory",[7]; [17],100
same,"Plant response rating, Morningglory",[7]; [18],50
same,"Plant response rating, Morningglory",[7]; [19],70
same,"Plant response rating, Morningglory",[7]; [20],95
same,Morningglory plant response rating,[7]; [21],98
same,"Plant response rating, Nutsedge, Yellow",[8]; [15],35
same,"Plant response rating, Nutsedge, Yellow",[8]; [16],65
same,"Plant response rating, Nutsedge, Yellow",[8]; [17],75
same,"Plant response rating, Nutsedge, Yellow",[8]; [18],0
same,"Plant response rating, Nutsedge, Yellow",[8]; [19],20
same,"Plant response rating, Nutsedge, Yellow",[8]; [20],75
same,"Nutsedge, Yellow plant response rating",[8]; [21],90
same,"Plant response rating, Pigweed",[9]; [15],85
same,"Plant response rating, Pigweed",[9]; [16],90
same,"Plant response rating, Pigweed",[9]; [17],98
same,"Plant response rating, Pigweed",[9]; [18],98
same,"Plant response rating, Pigweed",[9]; [19],90
same,"Plant response rating, Pigweed",[9]; [20],98
same,Pigweed plant response rating,[9]; [21],100
same,"Plant response rating, Ragweed",[10]; [15],98
same,"Plant response rating, Ragweed",[10]; [16],98
same,"Plant response rating, Ragweed",[10]; [17],100
same,"Plant response rating, Ragweed",[10]; [18],60
same,"Plant response rating, Ragweed",[10]; [19],75
same,"Plant response rating, Ragweed",[10]; [20],90
same,Ragweed plant response rating,[10]; [21],98
same,"Plant response rating, Ryegrass, Italian",[11]; [15],85
same,"Plant response rating, Ryegrass, Italian",[11]; [16],95
same,"Plant response rating, Ryegrass, Italian",[11]; [17],95
same,"Plant response rating, Ryegrass, Italian",[11]; [18],10
same,"Plant response rating, Ryegrass, Italian",[11]; [19],90
same,"Plant response rating, Ryegrass, Italian",[11]; [20],85
same,"Ryegrass, Italian plant response rating",[11]; [21],95
same,"Plant response rating, Soybean",soybean (Glycine max); [15],0
same,"Plant response rating, Soybean",soybean (Glycine max); [16],5
same,"Plant response rating, Soybean",soybean (Glycine max); [17],10
same,"Plant response rating, Soybean",soybean (Glycine max); [20],0
same,Soybean plant response rating,soybean (Glycine max); [21],0
same,"Plant response rating, Velvetleaf",[12]; [15],40
same,"Plant response rating, Velvetleaf",[12]; [16],98
same,"Plant response rating, Velvetleaf",[12]; [17],90
same,"Plant response rating, Velvetleaf",[12]; [18],65
same,"Plant response rating, Velvetleaf",[12]; [19],70
same,"Plant response rating, Velvetleaf",[12]; [20],95
same,Velvetleaf plant response rating,[12]; [21],100
same,"Plant response rating, Waterhemp",[13]; [15],40
same,"Plant response rating, Waterhemp",[13]; [16],55
same,"Plant response rating, Waterhemp",[13]; [17],70
same,"Plant response rating, Waterhemp",[13]; [18],50
same,"Plant response rating, Waterhemp",[13]; [19],65
same,"Plant response rating, Waterhemp",[13]; [20],75
same,Waterhemp plant response rating,[13]; [21],85
same,"Plant response rating, Wheat",[14]; [15],10
same,"Plant response rating, Wheat",[14]; [16],15
same,"Plant response rating, Wheat",[14]; [17],25
same,"Plant response rating, Wheat",[14]; [18],0
same,"Plant response rating, Wheat",[14]; [19],5
same,"Plant response rating, Wheat",[14]; [20],20
same,Wheat plant response rating,[14]; [21],40
